“And” between values parts separate entries of the source, which are not always exact repeats. Equal values may be shown once.
Target: Glutamate receptor ionotropic, NMDA 1 (Rattus norvegicus, UniProt P35439)

CN[C@@]1(c2ccccc2Cl)CCCCC1=O [2-(2-Chloro-phenyl)-2-methylamino-cyclohexanone(Ketamine)]
Ki: 1190 nM and 2510 nM

N[C@@H](Cc1ccc(Cl)cc1)C(=O)O [CAS_7424-00-2]
Ki: 42.2 nM and 180 nM

From BindingDB's records for doi:10.1016/0028-3908(95)00017-z (Merz, 1995)
